Data as given in patent US10392383B2, “3-(1H-benzo[d]imidazol-2-yl)-1H-pyrazolo[4,3-b]pyridines and therapeutic uses thereof” (Samumed, LLC, priority 2015, dated 2019).

Columns and labels:
Assay type in all cases: cell-based
[1] = test system: Wnt activity (Sp5-Luc reporter, Wnt-responsive promoter) in SW480 colon carcinoma cells; assay: Wnt activity screening assay: Sp5-Luc reporter gene assay in SW480 cells; conditions: Homo sapiens; for EC50: overnight incubation, 10-point curve starting from 10 μM; for inhibition at 10 µM: read-out: percent inhibition at 10 μM (given for EC50 of >10 μM)
Text: The screening assay for Wnt activity is described as follows. Reporter cell lines can be generated by stably transducing cancer cell lines (e.g., colon cancer) or primary cells (e.g., IEC-6 intestinal cells) with a lentiviral construct that includes a Wnt-responsive promoter driving expression of the firefly luciferase gene.
SW480 colon carcinoma cells were transduced with a lentiviral vector expressing luciferase with a human Sp5 promoter consisting of a sequence of eight TCF/LEF binding sites. SW480 cells stably expressing the Sp5-Luc reporter gene and a hygromycin resistance gene were selected by treatment with 150 μg/mL of hygromycin for 7 days. These stably transduced SW480 cells were expanded in cell culture and used for all further screening activities. Each compound was dissolved in DMSO as a 10 mM stock and used to prepare compound source plates. Serial dilution (1:3, 10-point dose-response curves starting from 10 μM) and compound transfer was performed using the ECHO 550 (Labcyte, Sunnyvale, Calif.) into 384-well white solid bottom assay plates (Greiner Bio-One) with appropriate DMSO backfill for a final DMSO concentration of 0.1%. For Sp5-Luc reporter gene assays, the cells were plated at 4,000 cells/well in 384-well plates with medium containing 1% fetal bovine serum and incubated overnight at 37° C. and 5% CO2. Following incubation, 20 μl of BrightGlo luminescence reagent (Promega) was added to each well of the 384-well assay plates. The plates were placed on an orbital shaker for 2 min and then luminescence was quantified using the Envision (Perkin Elmer) plate reader. Readings were normalized to DMSO only treated cells, and normalized activities were utilized for EC50 calculations using the dose-response log (inhibitor) vs. response-variable slope (four parameters) nonlinear regression feature available in GraphPad Prism 5.0 (or Dotmatics). For EC50 of >10 μM, the percent inhibition at 10 μM is provided.

[2] = test system: primary human fibroblasts derived from IPF patients (LL29 cells) treated with TGF-β1; assay: Inhibition of the fibrotic process: αSMA staining in TGF-β1-treated LL29 fibroblasts; conditions: Fibroblast; for EC50: 96 h, LL29 fibroblasts treated with TGF-β1 (20 ng/mL), 4 days, Table 4; for inhibition at 10 µM: LL29 fibroblasts treated with TGF-β1, Table 4, read-out: percent inhibition at 10 μM (given in parentheses for EC50 >10 μM)
Text: Representative compounds were screened using primary human fibroblasts (derived from IPF patients) treated with TGF-β1 to determine their ability to inhibit the fibrotic process.
Human Fibroblast Cell Culture: Primary human fibroblasts derived from IPF patients (LL29 cells) [^1Xiaoqiu Liu, et. al., “Fibrotic Lung Fibroblasts Show Blunted Inhibition by cAMP Due to Deficient cAMP Response Element-Binding Protein Phosphorylation”, Journal of Pharmacology and Experimental Therapeutics (2005), 315(2), 678-687; ^2Watts, K. L., et. al., “RhoA signaling modulates cyclin D1 expression in human lung fibroblasts; implications for idiopathic pulmonary fibrosis”, Respiratory Research (2006), 7(1), 88] were obtained from American Type Culture Collection (ATCC) and expanded in F12 medium supplemented with 15% Fetal Bovine Serum and Penicillin/Streptomycin.
Compound Screening: Each compound was dissolved in DMSO as a 10 mM stock and used to prepare compound source plates. Serial dilution (1:2, 11-point dose-response curves from 10 μM to […]) and compound transfer was performed using the ECHO 550 (Labcyte, Sunnyvale, Calif.) into 384-well clear bottom assay plates (Greiner Bio-One) with appropriate DMSO backfill for a final DMSO concentration of 0.1%. LL29 cells are plated at 1,500 cells/well in 80 μL/well F12 medium supplemented with 1% Fetal Bovine Serum. One hour after addition of the cells, TGF-β1 (Peprotech; 20 ng/mL) was added to the plates to induce fibrosis (ref. 1 and 2 above). Wells treated with TGF-β1 and containing DMSO were used as controls. Cells were incubated at 37° C. and 5% CO2 for 4 days. Following incubation for 4 days, SYTOX green nucleic acid stain (Life Technologies [Thermo Fisher Scientific]) was added to the wells at a final concentration of 1 μM and incubated at room temperature for 30 min. Cells were then fixed using 4% formaldehyde (Electron Microscopy Sciences), washed 3 times with PBS followed by blocking and permeabilization using 3% Bovine Serum Albumin (BSA; Sigma) and 0.3% Triton X-100 (Sigma) in PBS. Cells were then stained with antibody specific to α-smooth muscle actin (αSMA; Abcam) (ref. 1 and 2 above) in 3% Bovine Serum Albumin (BSA; Sigma) and 0.3% Triton X-100 (Sigma) in PBS, and incubated overnight at 4° C. Cells were then washed 3 times with PBS, followed by incubation with Alexa Flor-647 conjugated secondary antibody (Life Technologies [Thermo Fisher Scientific]) and DAPI at room temperature for 1 hour. Cells were then washed 3 times with PBS and plates were sealed for imaging. αSMA staining was imaged by excitation at 630 nm and emission at 665 nm and quantified using the Compartmental Analysis program on the CellInsight CX5 (Thermo Scientific). Dead or apoptotic cells were excluded from analysis based on positive SYTOX green staining. % of total cells positive for αSMA were counted in each well and normalized to the average of 11 wells treated with TGF-β1 on the same plate using Dotmatics' Studies Software. The normalized averages (fold change over untreated) of 3 replicate wells for each compound concentration were used to create dose-responses curves and EC50 values were calculated using non-linear regression curve fit in the Dotmatics' Studies Software. For EC50 of >10 μM, the percent inhibition at 10 μM is provided.

SW480 colon cancer cells = assay: Cell viability assay (CellTiter-Blue) in SW480 cells; conditions: Homo sapiens, 96 h, four days; for inhibition at 10 µM: read-out: percent inhibition at 10 μM (given for EC50 of >10 μM); for EC50: CellTiter-Blue, 10 μM to 0.0045 μM
Protocol: Representative compounds were screened using the following assay procedure to assess the effect on cell viability as described below.
Each compound was dissolved in DMSO as a 10 mM stock and used to prepare compound source plates. Serial dilution (1:3, 8-point dose-response curves from 10 μM to 0.0045 μM) and compound transfer was performed using the ECHO 550 (Labcyte, Sunnyvale, Calif.) into 96-well clear bottom, black-walled plates (Corning-Costar).
Approximately 2×10^3 SW480 colon cancer cells were seeded into each well and allowed to incubate in the presence or absence of compound for four days at 37° C./5% CO2. Eight replicates of DMSO-treated cells served as controls and cells treated with compound were performed in duplicate.
After incubation, 20 μL of CellTiter-Blue (Promega) was added to each well allowed to incubate for approximately 3 hours. This reagent was a buffered solution which contains resazurin, metabolically active cells were able to reduce rezarurin (blue) into resorufin (pink) which was highly fluorescent. This measured fluorescence was used as a readout for cell viability.
After incubation, the plates were read at Ex 560 nm Em 590 nm (Cytation 3, BioTek). Dose-response curves were generated and EC50 concentration values were calculated using non-linear regression curve fit in the GraphPad Prism (San Diego, Calif.) or Dotmatics' Studies Software (Bishops Stortford, UK). For EC50 of >10 μM, the percent inhibition at 10 μM is provided.

Compound | EC50 [1] | EC50 [2] | inhibition at 10 µM (SW480 colon cancer cells) | EC50 (SW480 colon cancer cells) | inhibition at 10 µM [1] | inhibition at 10 µM [2]
CCC(=O)Nc1cncc(-c2ccc3[nH]nc(-c4nc5c(N6CCCCC6)cccc5[nH]4)c3n2)c1 [Compound 169, N-(5-(3-(4-(Piperidin-1-yl)-1H-benzo[d]imidazol-2-yl)-1H-pyrazolo[4,3-b]pyridin-5-yl)pyridin-3-yl)propionamide] | 3.79 µM | 158 nM | 41.4% | > 10 µM |  | 
CN(C)c1cncc(-c2ccc3[nH]nc(-c4nc5c(N6CCCCC6)cccc5[nH]4)c3n2)c1 [Compound 175, N,N-dimethyl-5-(3-(4-(piperidin-1-yl)-1H-benzo[d]imidazol-2-yl)-1H-pyrazolo[4,3-b]pyridin-5-yl)pyridin-3-amine] | 2.13 µM | 4690 nM |  | 6.08 µM |  | 
CN(C)Cc1cncc(-c2ccc3[nH]nc(-c4nc5c(N6CCCCC6)cccc5[nH]4)c3n2)c1 [Compound 181, N,N-dimethyl-1-(5-(3-(4-(piperidin-1-yl)-1H-benzo[d]imidazol-2-yl)-1H-pyrazolo[4,3-b]pyridin-5-yl)pyridin-3-yl)methanamine] | 1.89 µM | 785 nM |  | 1.14 µM |  | 
CN1CCN(c2cccc3[nH]c(-c4n[nH]c5ccc(-c6cncc(N)c6)nc45)nc23)CC1 [Compound 227, 5-(3-(4-(4-Methylpiperazin-1-yl)-1H-benzo[d]imidazol-2-yl)-1H-pyrazolo [4,3-b]pyridin-5-yl)pyridin-3-amine] | > 10 µM | > 10000 nM | 18.4% | > 10 µM | 48.8% | 32.1%
CC(C)C(=O)Nc1cncc(-c2ccc3[nH]nc(-c4nc5c(N6CCN(C)CC6)cccc5[nH]4)c3n2)c1 [Compound 233, N-(5-(3-(4-(4-Methylpiperazin-1-yl)-1H-benzo[d]imidazol-2-yl)-1H-pyrazolo[4,3-b]pyridin-5-yl)pyridin-3-yl)isobutyramide] | > 10 µM | > 10000 nM | 6.4% | > 10 µM | 7.3% | 24.7%
CN1CCN(c2cccc3[nH]c(-c4n[nH]c5ccc(-c6cncnc6)nc45)nc23)CC1 [Compound 251, 3-(4-(4-Methylpiperazin-1-yl)-1H-benzo[d]imidazol-2-yl)-5-(pyrimidin-5-yl)-1H-pyrazolo[4,3-b]pyridine] | > 10 µM | 2430 nM | 0% | > 10 µM | 4.7% | 
O=C(Cc1ccccc1)Nc1cncc(-c2ccc3[nH]nc(-c4nc5ccccc5[nH]4)c3n2)c1 [Compound 262, N-(5-(3-(1H-Benzo[d]imidazol-2-yl)-1H-pyrazolo[4,3-b]pyridin-5-yl)pyridin-3-yl)-2-phenylacetamide] | > 10 µM | > 10000 nM | 13.9% | > 10 µM | 11.2% | 0%
O=C(Nc1cncc(-c2ccc3[nH]nc(-c4nc5c(-c6ccsc6)cccc5[nH]4)c3n2)c1)c1ccccc1 [Compound 291, N-(5-(3-(4-(Thiophen-3-yl)-1H-benzo[d]imidazol-2-yl)-1H-pyrazolo[4,3-b]pyridin-5-yl)pyridin-3-yl)benzamide] | > 10 µM | 2620 nM |  | 3.46 µM | 42.5% | 
Cc1ccc(-c2cccc3[nH]c(-c4n[nH]c5ccc(-c6cncc(NC(=O)C7CCCC7)c6)nc45)nc23)s1 [Compound 414, N-(5-(3-(4-(5-Methylthiophen-2-yl)-1H-benzo[d]imidazol-2-yl)-1H-pyrazolo [4,3-b]pyridin-5-yl)pyridin-3-yl)cyclopentanecarboxamide] | > 10 µM | > 10000 nM | 0% | > 10 µM | 7.2% | 42.2%
CS(=O)(=O)NCc1cc(F)cc(-c2cccc3[nH]c(-c4n[nH]c5ccc(-c6cncc(NC(=O)c7ccccc7)c6)nc45)nc23)c1 [Compound 487, N-(5-(3-(4-(3-Fluoro-5-(methylsulfonamidomethyl)phenyl)-1H-benzo[d]imidazol-2-yl)-1H-pyrazolo[4,3-b]pyridin-5-yl)pyridin-3-yl)benzamide] | > 10 µM | > 10000 nM | 9.7% | > 10 µM | 0% | 0%
Fc1cccc(-c2cccc3[nH]c(-c4n[nH]c5ccc(C6=CCNCC6)nc45)nc23)c1 [Compound 506, 3-(4-(3-Fluorophenyl)-1H-benzo[d]imidazol-2-yl)-5-(1,2,3,6-tetrahydropyridin-4-yl)-1H-pyrazolo[4,3-b]pyridine] | > 10 µM | 1600 nM |  | 4.16 µM | 10% | 
Fc1cccc(-c2cccc3[nH]c(-c4n[nH]c5ccc(-c6cn[nH]c6)nc45)nc23)c1 [Compound 507, 3-(4-(3-Fluorophenyl)-1H-benzo[d]imidazol-2-yl)-5-(1H-pyrazol-4-yl)-1H-pyrazolo[4,3-b]pyridine] | > 10 µM | 2980 nM |  | 0.975 µM | 36% | 
Fc1cccc(-c2cccc3[nH]c(-c4n[nH]c5ccc(-c6cnccn6)nc45)nc23)c1 [Compound 520, 3-(4-(3-Fluorophenyl)-1H-benzo[d]imidazol-2-yl)-5-(pyrazin-2-yl)-1H-pyrazolo[4,3-b]pyridine] | > 10 µM | 4290 nM |  | 1.79 µM | 26% | 
